# Data from patent US20110002843A1, “METHOD OF DETECTING MYOCARDIAL DYSFUNCTION IN PATIENTS HAVING A HISTORY OF ASTHMA OR BRONCHOSPASM” (priority 2005, published 2011).
# Experiment: Pulmonary responses and safety in human subjects with mild, intermittent asthma (single-blind and double-blind parts)
# Type: in vivo
# Conditions: for FEV1 (L) Mean % Change from Baseline (SD) / FEV1 (L) Mean (SD) / FVC Mean % Change from Baseline (SD) / FVC Mean (SD) / changes from baseline in mean FEV1, FEV1 (% predicted), FEF25%-75%, FVC / subjects with treatment-emergent AEs / FEF25%-75% Mean % Change from Baseline (SD) / FEF25%-75% Mean (SD) / FEV1 (% predicted) Mean % Change from Baseline (SD) / FEV1 (% predicted) Mean (SD): single-blind
# Experimental: Methodology: The study consisted of 2 parts, a Single-Blind Part and a Double-Blind Part. The dose escalating, Single-Blind Part enrolled subjects with mild, intermittent asthma and consisted of 3 sequentially enrolled dosing cohorts with 8 subjects per cohort, such that Dosing Cohorts 1, 2 and 3 received binodenoson target doses of 0.5 μg/kg, 1.0 μg/kg and 1.5 μg/kg, respectively. All 8 subjects in a dosing cohort must have completed dosing at the assigned dose and a medical review of each cohort must have been acceptable before enrollment in the next cohort began. The Double-Blind Part was initiated only if the medical review of all safety data from the Single-Blind Part was acceptable. In the Double Blind Part, subjects with mild, intermittent asthma were randomly assigned in a 2:1 ratio to receive either binodenoson 1.5 μg/kg (n=40 planned) or placebo control (n=20 planned).
# Both study parts were comprised of Screening, Treatment and Follow-Up Visits. The Screening Visit occurred 7 to 14 days before the Treatment Visit and consisted of a physical examination, medical history and application of inclusion and exclusion criteria. Subjects were instructed to measure peak expiratory flow (PEF) and asthma symptoms during a period of at least 7 days prior to the Treatment Visit. Subjects were to continue to meet all Screening eligibility criteria at the Treatment Visit and forced expiratory volume in 1 second (FEV1) was to remain within 80% of predicted for subjects to be eligible for dosing. All subjects enrolled in the Single-Blind Part and subjects randomized to receive binodenoson in the Double-Blind Part received 3 intravenous (IV) injections during the Treatment Visit: (1) placebo; (2) a low, challenge binodenoson dose to detect potential hypersensitivity reactions; and (3) an assigned binodenoson test dose. Subjects randomized to receive placebo in the Double Blind Part received 3 placebo injections. The Follow-Up Visit occurred 2 to 4 days following the Treatment Visit.
# Eligible subjects were males or non-pregnant, nonlactating females ≧18 years of age weighing <350 pounds with a medical history of mild, intermittent asthma (as defined in the “Guidelines for the Diagnosis and Management of Asthma” prepared by the National Institutes of Health [NIH]) within 6 months of Screening.
# Subjects were not eligible for the study if they had resting sitting systolic blood pressure (SBP)<100 or >140 mmHg, diastolic blood pressure (DBP)<60 or >90 mmHg, pulse rate >95 beats per minute (bpm), or a lower limit FEV1 at rest of <80% of the predicted value at Screening.
# Dose and Mode of Administration: A stock solution of binodenoson (25 μg/mL) was administered as a bolus injection over 30 seconds (0.1 μg/kg=0.004 mL/kg of stock solution, 0.5 μg/kg=0.02 mL/kg of stock solution, 1.0 μg/kg=0.04 mL/kg of stock solution and 1.5 μg/kg=0.06 mL/kg of stock solution).
# Duration of Treatment: Each subject received three 30-second bolus IV injections separated by ≧90 minutes in both the Single Blind and Double-Blind Parts of the study.
# Criteria for Evaluation: The primary safety endpoint was clinically significant bronchoconstriction, defined as a ≧20% decrease in FEV1 from the predrug baseline following binodenoson administration. Other safety assessments included need for rescue medication, regular measurements of pulmonary function (FEV1 [% predicted], forced vital capacity [FVC] and forced expiratory flow during the middle half of the FVC [FEF25%-75%]), vital signs, pulse oximetry, physical examination findings, electrocardiogram (ECG) results, clinical laboratory results and adverse events.
# Statistical Methods: All data collected in the study were summarized by treatment (placebo; 0.1 μg/kg binodenoson challenge; or 0.5, 1.0, or 1.5 μg/kg binodenoson) and study Part (Single-Blind or Double-Blind with univariate summaries). Continuous variables were summarized with descriptive statistics (n, mean, median, standard deviation [SD] and minimum and maximum). […]
# [1] = Cohort 3, second injection 0.1 μg/kg iv bolus, 90 minutes
# [2] = third injection 0.5 μg/kg iv bolus, 5 min
# [3] = third injection 0.5 μg/kg iv bolus, 15 min
# [4] = third injection 0.5 μg/kg iv bolus, 45 min
# [5] = third injection 0.5 μg/kg iv bolus, 90 min
# [6] = third injection 1.0 μg/kg iv bolus, 5 min
# [7] = third injection 1.0 μg/kg iv bolus, 15 min
# [8] = third injection 1.0 μg/kg iv bolus, 45 min
# [9] = third injection 1.0 μg/kg iv bolus, 90 min
# [10] = third injection 1.5 μg/kg iv bolus, 5 min
# [11] = third injection 1.5 μg/kg iv bolus, 15 min
# [12] = third injection 1.5 μg/kg iv bolus, 45 min
# [13] = third injection 1.5 μg/kg iv bolus, 90 min
compound,measurement,setting,value
"Nc1nc(N/N=C/C2CCCCC2)nc2c1ncn2[C@@H]1O[C@H](CO)[C@@H](O)[C@H]1O (stereo in doubt) [Binodenoson, 2-{2-[(Cyclohexyl)methylene]hydrazino}adenosine]",FEV1 (L) Mean % Change from Baseline (SD),[1],0.901 (2.441) %
same,FEV1 (L) Mean (SD),[1],3.343 (0.657) L
same,FVC Mean % Change from Baseline (SD),[1],−0.163 (0.894) %
same,FVC Mean (SD),[1],4.334 (0.850)
same,"changes from baseline in mean FEV1, FEV1 (% predicted), FEF25%-75%, FVC",after binodenoson 0.1 μg/kg injection,No clinically significant changes from baseline
same,subjects with treatment-emergent AEs,binodenoson 0.1 μg/kg,No subjects experienced treatment-emergent AEs
same,subjects with treatment-emergent AEs,third injection 0.5 μg/kg,25%
same,FEF25%-75% Mean % Change from Baseline (SD),[2],−3.549 (6.717) %
same,FEF25%-75% Mean (SD),[2],3.111 (0.915)
same,FEV1 (% predicted) Mean % Change from Baseline (SD),[2],−2.3 (3.4) %
same,FEV1 (% predicted) Mean (SD),[2],92.6 (12.5) % predicted
same,FEV1 (L) Mean % Change from Baseline (SD),[2],−2.327 (3.977) %
same,FEV1 (L) Mean (SD),[2],3.995 (0.820) L
same,FVC Mean % Change from Baseline (SD),[2],−1.162 (2.708) %
same,FVC Mean (SD),[2],5.581 (1.151)
same,FEF25%-75% Mean % Change from Baseline (SD),[3],−1.773 (3.375) %
same,FEF25%-75% Mean (SD),[3],3.169 (0.885)
same,FEV1 (% predicted) Mean % Change from Baseline (SD),[3],−0.9 (2.1) %
same,FEV1 (% predicted) Mean (SD),[3],94.0 (11.9) % predicted
same,FEV1 (L) Mean % Change from Baseline (SD),[3],−0.967 (2.171) %
same,FEV1 (L) Mean (SD),[3],4.049 (0.800) L
same,FVC Mean % Change from Baseline (SD),[3],−0.033 (1.645) %
same,FVC Mean (SD),[3],5.640 (1.130)
same,FEF25%-75% Mean % Change from Baseline (SD),[4],−2.338 (5.471) %
same,FEF25%-75% Mean (SD),[4],3.158 (0.899)
same,FEV1 (% predicted) Mean % Change from Baseline (SD),[4],−1.5 (2.1) %
same,FEV1 (% predicted) Mean (SD),[4],93.4 (11.7) % predicted
same,FEV1 (L) Mean % Change from Baseline (SD),[4],−1.455 (2.494) %
same,FEV1 (L) Mean (SD),[4],4.034 (0.821) L
same,FVC Mean % Change from Baseline (SD),[4],−0.838 (3.371) %
same,FVC Mean (SD),[4],5.591 (1.122)
same,FEF25%-75% Mean % Change from Baseline (SD),[5],−3.732 (9.304) %
same,FEF25%-75% Mean (SD),[5],3.106 (0.892)
same,FEV1 (% predicted) Mean % Change from Baseline (SD),[5],−2.0 (3.4) %
same,FEV1 (% predicted) Mean (SD),[5],92.9 (12.5) % predicted
same,FEV1 (L) Mean % Change from Baseline (SD),[5],−2.365 (3.864) %
same,FEV1 (L) Mean (SD),[5],4.000 (0.840) L
same,FVC Mean % Change from Baseline (SD),[5],−0.963 (3.579) %
same,FVC Mean (SD),[5],5.600 (1.196)
same,subjects with treatment-emergent AEs,third injection 1.0 μg/kg,50%
same,FEF25%-75% Mean % Change from Baseline (SD),[6],2.938 (17.701) %
same,FEF25%-75% Mean (SD),[6],3.571 (1.546)
same,FEV1 (% predicted) Mean % Change from Baseline (SD),[6],−0.1 (5.7) %
same,FEV1 (% predicted) Mean (SD),[6],93.5 (11.5) % predicted
same,FEV1 (L) Mean % Change from Baseline (SD),[6],−0.071 (5.830) %
same,FEV1 (L) Mean (SD),[6],3.889 (0.883) L
same,FVC Mean % Change from Baseline (SD),[6],0.316 (3.947) %
same,FVC Mean (SD),[6],5.106 (1.192)
same,FEF25%-75% Mean % Change from Baseline (SD),[7],1.896 (7.770) %
same,FEF25%-75% Mean (SD),[7],3.534 (1.364)
same,FEV1 (% predicted) Mean % Change from Baseline (SD),[7],0.0 (3.8) %
same,FEV1 (% predicted) Mean (SD),[7],93.6 (13.0) % predicted
same,FEV1 (L) Mean % Change from Baseline (SD),[7],0.113 (3.892) %
same,FEV1 (L) Mean (SD),[7],3.899 (0.884) L
same,FVC Mean % Change from Baseline (SD),[7],−0.138 (3.728) %
same,FVC Mean (SD),[7],5.078 (1.156)
same,FEF25%-75% Mean % Change from Baseline (SD),[8],7.715 (11.942) %
same,FEF25%-75% Mean (SD),[8],3.759 (1.554)
same,FEV1 (% predicted) Mean % Change from Baseline (SD),[8],0.6 (6.3) %
same,FEV1 (% predicted) Mean (SD),[8],94.3 (16.4) % predicted
same,FEV1 (L) Mean % Change from Baseline (SD),[8],0.344 (6.156) %
same,FEV1 (L) Mean (SD),[8],3.926 (1.012) L
same,FVC Mean % Change from Baseline (SD),[8],−1.792 (6.201) %
same,FVC Mean (SD),[8],5.020 (1.300)
same,FEF25%-75% Mean % Change from Baseline (SD),[9],9.498 (11.643) %
same,FEF25%-75% Mean (SD),[9],3.830 (1.595)
same,FEV1 (% predicted) Mean % Change from Baseline (SD),[9],2.6 (4.5) %
same,FEV1 (% predicted) Mean (SD),[9],96.3 (15.9) % predicted
same,FEV1 (L) Mean % Change from Baseline (SD),[9],2.406 (4.249) %
same,FEV1 (L) Mean (SD),[9],4.005 (0.983) L
same,FVC Mean % Change from Baseline (SD),[9],−0.051 (2.348) %
same,FVC Mean (SD),[9],5.105 (1.262)
same,subjects with treatment-emergent AEs,third injection 1.5 μg/kg,75%
same,FEF25%-75% Mean % Change from Baseline (SD),[10],2.411 (12.016) %
same,FEF25%-75% Mean (SD),[10],2.880 (0.584)
same,FEV1 (% predicted) Mean % Change from Baseline (SD),[10],0.4 (2.6) %
same,FEV1 (% predicted) Mean (SD),[10],91.6 (8.1) % predicted
same,FEV1 (L) Mean % Change from Baseline (SD),[10],0.336 (2.702) %
same,FEV1 (L) Mean (SD),[10],3.344 (0.610) L
same,FVC Mean % Change from Baseline (SD),[10],0.031 (2.871) %
same,FVC Mean (SD),[10],4.334 (0.845)
same,FEF25%-75% Mean % Change from Baseline (SD),[11],2.110 (5.540) %
same,FEF25%-75% Mean (SD),[11],2.890 (0.645)
same,FEV1 (% predicted) Mean % Change from Baseline (SD),[11],−0.5 (2.0) %
same,FEV1 (% predicted) Mean (SD),[11],90.8 (7.8) % predicted
same,FEV1 (L) Mean % Change from Baseline (SD),[11],−0.380 (2.306) %
same,FEV1 (L) Mean (SD),[11],3.330 (0.666) L
same,FVC Mean % Change from Baseline (SD),[11],−1.335 (2.366) %
same,FVC Mean (SD),[11],4.281 (0.882)
same,FEF25%-75% Mean % Change from Baseline (SD),[12],−1.475 (6.450) %
same,FEF25%-75% Mean (SD),[12],2.803 (0.705)
same,FEV1 (% predicted) Mean % Change from Baseline (SD),[12],−0.4 (2.3) %
same,FEV1 (% predicted) Mean (SD),[12],90.9 (7.9) % predicted
same,FEV1 (L) Mean % Change from Baseline (SD),[12],−0.439 (2.820) %
same,FEV1 (L) Mean (SD),[12],3.331 (0.682) L
same,FVC Mean % Change from Baseline (SD),[12],−0.179 (2.938) %
same,FVC Mean (SD),[12],4.326 (0.872)
same,FEF25%-75% Mean % Change from Baseline (SD),[13],0.469 (2.514) %
same,FEF25%-75% Mean (SD),[13],2.851 (0.654)
same,FEV1 (% predicted) Mean % Change from Baseline (SD),[13],0.6 (1.3) %
same,FEV1 (% predicted) Mean (SD),[13],91.9 (7.4) % predicted
same,FEV1 (L) Mean % Change from Baseline (SD),[13],0.617 (1.762) %
same,FEV1 (L) Mean (SD),[13],3.365 (0.680) L
same,FVC Mean % Change from Baseline (SD),[13],0.537 (2.460) %
same,FVC Mean (SD),[13],4.358 (0.878)
same,"changes from baseline in mean FEV1, FEV1 (% predicted), FEF25%-75%, FVC","third injection (0.5, 1.0, 1.5 μg/kg)",no clinically significant changes from baseline
same,"deaths, serious AEs, premature discontinuations due to AEs",whole study,"no deaths, serious AEs, or premature discontinuations due to AEs"
same,"laboratory evaluations, ECG, pulse oximetry",whole study,No clinically meaningful results
